The numbers were not newly measured in PMC12299890 (Pharmaceuticals, 2025), which cites them from elsewhere.

Where two headings read alike, the source gives them in different places.

Details of this data set: method as in PMID 27121673. The conditions noted are these: cited from earlier work.

For `O[C@H]1[C@H](O)[C@@H](O)[C@H](O)[C@@H](O)[C@@H]1O` [SCI, scyllo-inositol], the “Time of maximum plasma concentration” value (after the last dose, 2000 mg two times a day for 10 days) is 2.9 h. Further, the “AUC of SCI in CSF” value is 49.4 µg·h/mL (day 1, oral 2000 mg two times a day) and 153.0 µg·h/mL (day 11, oral 2000 mg two times a day). Also, the “Increase of brain concentration of SCI during the study” value (oral 2000 mg two times a day for 10 days) is 58–76%. For the same molecule, where the note is “oral 2000 mg two times a day”, the Side effects reported entry is on record as “No side effects”. For the same molecule, for the setting “plasma, after first oral dose of 2000 mg twice a day”, the “Time of peak SCI plasma concentration” value is recorded as 3.8 h.
